# Assay results reported in article PMC4684500, “Diversity, Antimicrobial Action and Structure-Activity Relationship of Buffalo Cathelicidins” (PLoS ONE, 2015).
# Where two headings read alike, the source gives them in different places. Where no end group is shown, it is not given here.
# Experiments:
# [1] = tested on: Stahylococcus aureus ATCC-29213; format: cell-based, Staphylococcus aureus
# Experimental: (§1) The buCATHL4 peptides were synthesized by G L Biochem (Shanghai, China). Purity and molecular mass of the peptides were provided by the vendors using HPLC and mass spectrometry, respectively. The purity of all peptides were >98%. Minimum inhibitory concentrations (MIC) of buCATHL4s against the pathogenic microorganisms were tested by broth micro-dilution technique. Briefly, bacteria were grown in Mueller Hinton broth (Sigma-Aldrich, MO, USA) at 37°C. The OD of early-log phase cultures were adjusted to 0.08–0.1 and further diluted (1:200) to keep inoculums concentration nearly 10^6 colony forming units (CFU)/ml. Diluted peptides (10 μl) were mixed with equi-volume solution A (0.02% acetic acid containing 0.4% BSA) and were serially diluted in the solution B (0.01% acetic acid containing 0.2% BSA). Bacterial inoculums (90 μl) were mixed with serially diluted peptides and incubated at 37°C for 24 h without shaking. […] All peptides were tested in triplicate. For time kill kinetics experiments, peptides (1×, 2× and 4× MIC) were added to bacterial suspension of Staphylococcus aureus, Salmonella enterica and Pseudomonas aeruginosa, as described in the MIC determination method. Aliquots of representative wells were diluted and plated on Muller Hinton agar plates at 0, 1, 4, 12 and 24 h intervals. Water with 0.01% acetic acid and ampicillin (100 mg/ml) were taken as […] controls, respectively. The results were represented as log CFU/ml.
# [2] = tested on: Stahylococcus aureus NCDC-0111; format: cell-based, Staphylococcus aureus
# Experimental: as §1
# [3] = tested on: Acinetobacter johnsonii NCDC-0072; format: cell-based
# Experimental: as §1
# [4] = tested on: Bacillus cereus NCDC-0240; format: cell-based
# Experimental: as §1
# [5] = tested on: Escherichia coli MTCC-0723; format: cell-based
# Experimental: as §1
# [6] = tested on: Listeria monocytogenes ATCC-19111; format: cell-based
# Experimental: as §1
# [7] = tested on: Pseudomonas aeruginosa ATCC-27853; format: cell-based
# Experimental: as §1
# [8] = tested on: Pseudomonas aeruginosa NCDC-0105; format: cell-based
# Experimental: as §1
# [9] = tested on: Salmonella typhimurium ATCC-14028; format: cell-based
# Experimental: as §1
# [10] = tested on: S. aureus biofilm; experiment: Biofilm assay (crystal violet); format: cell-based, Staphylococcus aureus; settings: peptide at 1× and 2× MIC, 24 h 37°C, crystal violet A570
# Experimental: (§2) The efficacy of peptides against biofilms of S. aureus and P. aeruginosa was determined using previously described method. Overnight grown bacterial cultures were diluted (1:100) and 200 μl suspensions were mixed with each peptide (1× and 2× MIC) in a 96 well plate and incubated for 24 h at 37°C. Biofilms were fixed with paraformadehyde solution, cultures were decanted and 0.1% crystal violet solution was added to stain the film. The plate was rinsed thrice with water and air-dried. The stain was dissolved by 100 μl of acetic acid (30%) and absorbance was measured at 570 nm. The experiment was performed in triplicate, 30% acetic acid was taken as a blank.
# [11] = tested on: P. aeruginosa biofilm; experiment: Biofilm assay (crystal violet); format: cell-based, Pseudomonas aeruginosa; settings: 24 h 37°C, crystal violet A570
# Experimental: as §2
# [12] = tested on: S. aureus; experiment: Time kill kinetics; format: cell-based, Staphylococcus aureus; settings: for Time to complete elimination of S. aureus: peptide at 4× MIC, time kill kinetics; for Growth inhibition of S. aureus in time kill kinetics: peptide at 2× MIC, plating at 0, 1, 4, 12, 24 h
# Experimental: as §1
# [13] = tested on: S. aureus, S. typhimurium and P. aeruginosa; experiment: Time kill kinetics, three pathogens; format: cell-based; settings: peptide at 4× MIC
# Experimental: as §1
# [14] = tested on: bacterial biofilm (S. aureus and P. aeruginosa); experiment: Biofilm assay, overall statement; format: cell-based; settings: summary in discussion
# Experimental: as §2
# [15] = tested on: S. aureus; experiment: LIVE/DEAD BacLight membrane permeability assay; format: cell-based, Staphylococcus aureus; settings: peptide 200μM, log phase culture, SYTO9/PI
# Experimental: (§3) The damage to bacterial membrane following addition of peptide was assessed by BacLight kit (Life Technologies, CA, USA). Aliquots of S. aureus, S. enterica and P. aeruginosa cultures from exponential (shaking incubation for 2, 3, and 4 h, respectively) and stationary phases (overnight incubation) were harvested by centrifugation (5000 g for 10 min) and diluted in PBS. Peptides (200μM) were added to bacterial suspension and 50 μl aliquots were removed immediately or after 1 h incubation. Equi-volume mixtures of SYTO9/PI (3 μl/ml bacterial suspension) were added to these aliquots and fluorescent micrographs of stained bacteria were taken at 1000×magnification in a microscope (Olympus BX51 fitted with DP71 camera) with a fluorescence illuminator system.
# [16] = tested on: S. typhimurium; experiment: LIVE/DEAD BacLight membrane permeability assay; format: cell-based, Salmonella typhimurium; settings: peptide 200μM, SYTO9/PI; for Clumping (agglutination) of S. typhimurium after peptide addition: log phase culture; for Membrane permeability of latent (stationary phase) S. typhimurium: stationary phase culture, proportion of cells affected comparatively less
# Experimental: as §3
# [17] = tested on: S. aureus; experiment: Scanning and transmission electron microscopy; format: cell-based, Staphylococcus aureus
# Experimental: (§4) Early log phase cultures of S. aureus and S. enterica were subjected to different concentration of peptides and incubated at 37°C. The bacterial pellets after centrifugation (5000 g for 10 min) were washed with 0.1M cacodylate buffer (pH 7.2) and were fixed in 2.5% gluteraldehyde at 4°C for 2 h. For scanning electron microscopy, bacteria were dehydrated using gradient series of ethanol wash (30, 50, 70, 90 and absolute). The samples were air-dried overnight, gold coated (Eiko IB-3 ion coater), and viewed in a Zeiss EVO 18 Special Edition SEM. For transmission electron microscopy, fixed samples were adhered to hexagonal PELCO® Grids (Ted Pella, Inc. USA), washed once with Mili-Q water and stained with uranyl acetate (2%) buffer. Samples were viewed in a JEM 1011 (Jeol, Japan) microscope.
# [18] = tested on: S. typhimurium; experiment: Scanning and transmission electron microscopy; format: cell-based, Salmonella typhimurium; settings: for Morphological change of S. typhimurium cells (SEM/TEM): increasing concentrations (>2× MIC)
# Experimental: as §4
# [19] = increasing concentrations (>2× MIC)
Compound,Reduction in biofilm growth of S. aureus [10],Reduction in biofilm growth of P. aeruginosa ([11]; peptide at 1× and 2× MIC),"MIC ([1]; ATCC-29213, 24 h)",MIC ([2]; 24 h),MIC ([3]; 24 h),"MIC ([4]; NCDC-0240, 24 h)","MIC ([5]; MTCC-0723, 24 h)","MIC ([6]; ATCC-19111, 24 h)","MIC ([7]; ATCC-27853, 24 h)","MIC ([8]; NCDC-0105, 24 h)","MIC ([9]; ATCC-14028, 24 h)",Time to complete elimination of S. aureus [12],Killing rate compared with indolicidin and ampicillin [13],Effect against growth of bacterial biofilms (overall) [14],Clumping (agglutination) of S. aureus after peptide addition [15],Clumping (agglutination) of S. typhimurium after peptide addition [16],"Morphological change of S. aureus cells (SEM/TEM) [17, 19]",Morphological change of S. aureus cells (SEM/TEM) ([17]; lower concentrations (≤2× MIC)),Morphological change of S. typhimurium cells (SEM/TEM) [18],Growth inhibition of S. aureus in time kill kinetics [12],also measured
"CC[C@H](C)[C@H](N)C(=O)N[C@@H](CC(C)C)C(=O)N1CCC[C@H]1C(=O)N[C@@H](Cc1c[nH]c2ccccc12)C(=O)N[C@@H](CCCCN)C(=O)N[C@@H](Cc1c[nH]c2ccccc12)C(=O)N1CCC[C@H]1C(=O)N[C@@H](Cc1c[nH]c2ccccc12)C(=O)N[C@@H](Cc1c[nH]c2ccccc12)C(=O)N1CCC[C@H]1C(=O)N[C@@H](Cc1c[nH]c2ccccc12)C(=O)N[C@@H](CCCNC(=N)N)C(=O)N[C@@H](CCCNC(=N)N)C(N)=O [Indolicidin, indolicidin, reference compound]",effective,effective,–,–,–,–,–,–,–,–,–,–,–,–,–,–,–,–,–,–,"MIC ([1]; Stahylococcus aureus ATCC-29213, broth microdilution, Mueller Hinton broth, ~10^6 CFU/ml, 37°C 24 h, no visible turbidity, triplicate): 3 µM; MIC ([2]; Stahylococcus aureus NCDC-0111, broth microdilution, Mueller Hinton broth, ~10^6 CFU/ml, 37°C 24 h, no visible turbidity, triplicate): 1.5 µM; MIC ([3]; Acinetobacter johnsonii NCDC-0072, broth microdilution, Mueller Hinton broth, ~10^6 CFU/ml, 37°C 24 h, no visible turbidity, triplicate): 6 µM; MIC ([4]; Bacillus cereus NCDC-0240, broth microdilution, Mueller Hinton broth, ~10^6 CFU/ml, 37°C 24 h, no visible turbidity, triplicate): 0.8 µM; MIC ([5]; Escherichia coli MTCC-0723, broth microdilution, Mueller Hinton broth, ~10^6 CFU/ml, 37°C 24 h, no visible turbidity, triplicate): 0.8 µM; MIC ([6]; Listeria monocytogenes ATCC-19111, broth microdilution, Mueller Hinton broth, ~10^6 CFU/ml, 37°C 24 h, no visible turbidity, triplicate): 6 µM; MIC ([7]; Pseudomonas aeruginosa ATCC-27853, broth microdilution, Mueller Hinton broth, ~10^6 CFU/ml, 37°C 24 h, no visible turbidity, triplicate): 25 µM; MIC ([8]; Pseudomonas aeruginosa NCDC-0105, broth microdilution, Mueller Hinton broth, ~10^6 CFU/ml, 37°C 24 h, no visible turbidity, triplicate): 12.5 µM; MIC ([9]; Salmonella typhimurium ATCC-14028, broth microdilution, Mueller Hinton broth, ~10^6 CFU/ml, 37°C 24 h, no visible turbidity, triplicate): 12.5 µM"
AIPWSIWWHLLFKG [buCATHL4G],–,–,0.8 µM,12.5 µM,25 µM,50 µM,50 µM,1.5 µM,200 µM,200 µM,3 µM,4 h,comparatively better killing rate,no marked effect,immediate clumping,immediate clumping,budding,swelling and blebing,budding,–,–
AIPWSIWWRLLFKG [buCATHL4F],–,–,6 µM,6 µM,200 µM,100 µM,>200 µM,3 µM,100 µM,50 µM,0.2 µM,4 h,–,no marked effect,immediate clumping,immediate clumping,budding,swelling and blebing,budding,complete growth inhibition,Reduction in biofilm growth of P. aeruginosa ([11]; peptide at 2× MIC): considerably; Membrane permeability of latent (stationary phase) S. typhimurium [16]: affected membrane permeability
GLPWILLRWLFFRG [buCATHL4A],–,–,3 µM,25 µM,200 µM,100 µM,200 µM,6 µM,>200 µM,>200 µM,100 µM,–,–,–,–,–,–,–,–,–,–
RIRFPWPWRWPWWPRFRG [buCATHL4D],substantial,substantial,6 µM,12.5 µM,50 µM,1.5 µM,6 µM,6 µM,25 µM,50 µM,50 µM,–,comparatively better killing rate,–,–,–,–,–,–,complete growth inhibition,Membrane permeability of latent (stationary phase) S. typhimurium [16]: affected membrane permeability; Formation of negative curvature on membrane (SEM/TEM) ([18]; more evident with S. typhimurium): Formation of negative curvature
